# Test results: PubChem BioAssay AID2060611 (Molecular Pharmacology Branch, DTP, NCI, 2025)
# Several values for one entry are separate records, joined by “and”; a condition that tells them apart may be missing. Equal entries are not always repeated.
# System: 628569-122-R-J1-PDC complex spheroid viability
# Test: Anticancer human tumor 628569-122-R-J1-PDC patient-derived head and neck squamous carcinoma cell line growth inhibition [CLK]
# Settings: for viability, T/C: stronger effect = lower value
# Summary of the method: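 Multi-cell-type spheroids combined patient-derived tumor cells with HUVEC endothelial cells and human mesenchymal stem cells. Paired agents were dosed in half-log steps down from about clinical Cmax, or from 10 microM where Cmax was unknown.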
# [1] = curve of first compound, second compound 0.0316 µM
# [2] = curve of first compound, second compound 0.1 µM
# [3] = curve of first compound, second compound 0.316 µM
# [4] = curve of first compound, second compound 1 µM
# [5] = curve of first compound, second compound 3.16 µM
# [6] = curve of first compound, second compound 10 µM
# [7] = second compound 0.0316 µM, first compound 0.0316 µM
# [8] = second compound 0.0316 µM, first compound 0.1 µM
# [9] = second compound 0.0316 µM, first compound 0.316 µM
# [10] = second compound 0.0316 µM, first compound 1 µM
# [11] = second compound 0.0316 µM, first compound 3.16 µM
# [12] = second compound 0.0316 µM, first compound 10 µM
# [13] = second compound 0.1 µM, first compound 0.0316 µM
# [14] = second compound 0.1 µM, first compound 0.1 µM
# [15] = second compound 0.1 µM, first compound 0.316 µM
# [16] = second compound 0.1 µM, first compound 1 µM
# [17] = second compound 0.1 µM, first compound 3.16 µM
# [18] = second compound 0.1 µM, first compound 10 µM
# [19] = second compound 0.316 µM, first compound 0.0316 µM
# [20] = second compound 0.316 µM, first compound 0.1 µM
# [21] = second compound 0.316 µM, first compound 0.316 µM
# [22] = second compound 0.316 µM, first compound 1 µM
# [23] = second compound 0.316 µM, first compound 3.16 µM
# [24] = second compound 0.316 µM, first compound 10 µM
# [25] = second compound 1 µM, first compound 0.0316 µM
# [26] = second compound 1 µM, first compound 0.1 µM
# [27] = second compound 1 µM, first compound 0.316 µM
# [28] = second compound 1 µM, first compound 1 µM
# [29] = second compound 1 µM, first compound 3.16 µM
# [30] = second compound 1 µM, first compound 10 µM
# [31] = second compound 3.16 µM, first compound 0.0316 µM
# [32] = second compound 3.16 µM, first compound 0.1 µM
# [33] = second compound 3.16 µM, first compound 0.316 µM
# [34] = second compound 3.16 µM, first compound 1 µM
# [35] = second compound 3.16 µM, first compound 3.16 µM
# [36] = second compound 3.16 µM, first compound 10 µM
# [37] = second compound 10 µM, first compound 0.0316 µM
# [38] = second compound 10 µM, first compound 0.1 µM
# [39] = second compound 10 µM, first compound 0.316 µM
# [40] = second compound 10 µM, first compound 1 µM
# [41] = second compound 10 µM, first compound 3.16 µM
# [42] = second compound 10 µM, first compound 10 µM
# 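Further: spheroids exposed to agents for seven days before readout.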
# 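Wherever viability, T/C is given: 100% = DMSO vehicle control viability.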
compound,measurement,setting,value
COc1ccc([C@@H](O)c2cc(-c3ncnc4cc(N5CCOCC5)ccc34)c(F)cc2Cl)nn1 + CNC(=O)c1ccc(Nc2nc(OC3CCCC3)c3c(-c4ccc5nc(C)oc5c4)c[nH]c3n2)c(OC)c1,IC50,[1],2.01 µM
same,IC50,[2],0.26 µM
same,IC50,[3],< 0.0316 µM
same,IC50,[4],< 0.0316 µM
same,IC50,[5],< 0.0316 µM
same,IC50,[6],< 0.0316 µM
same,"viability, T/C",[7],83.7%
same,"viability, T/C",[8],80.5%
same,"viability, T/C",[9],78.1%
same,"viability, T/C",[10],61.8%
same,"viability, T/C",[11],42.3%
same,"viability, T/C",[12],35%
same,"viability, T/C",[13],54.5%
same,"viability, T/C",[14],47.7%
same,"viability, T/C",[15],49.6%
same,"viability, T/C",[16],48.4%
same,"viability, T/C",[17],41.9%
same,"viability, T/C",[18],33.8%
same,"viability, T/C",[19],47.5%
same,"viability, T/C",[20],41.4%
same,"viability, T/C",[21],41.7%
same,"viability, T/C",[22],39%
same,"viability, T/C",[23],39.4%
same,"viability, T/C",[24],29.7%
same,"viability, T/C",[25],46.8%
same,"viability, T/C",[26],42.9%
same,"viability, T/C",[27],41.7%
same,"viability, T/C",[28],29.6%
same,"viability, T/C",[29],36.4%
same,"viability, T/C",[30],31.4%
same,"viability, T/C",[31],33.2%
same,"viability, T/C",[32],39.5%
same,"viability, T/C",[33],34.4%
same,"viability, T/C",[34],37.4%
same,"viability, T/C",[35],38.4%
same,"viability, T/C",[36],21%
same,"viability, T/C",[37],45.1%
same,"viability, T/C",[38],41.7%
same,"viability, T/C",[39],32.2%
same,"viability, T/C",[40],36.1%
same,"viability, T/C",[41],27.8%
same,"viability, T/C",[42],18.9%
COc1ccc([C@@H](O)c2cc(-c3ncnc4cc(N5CCOCC5)ccc34)c(F)cc2Cl)nn1,"viability, T/C",compound 0.0316 µM,79.4% and 79.8%
same,"viability, T/C",compound 0.1 µM,92.1% and 72.9%
same,"viability, T/C",compound 0.316 µM,69.5% and 75.5%
same,"viability, T/C",compound 1 µM,51% and 57.1%
same,"viability, T/C",compound 3.16 µM,41.2% and 39.4%
same,"viability, T/C",compound 10 µM,21.8% and 31.3%
same,IC50,curve of compound,1.35 µM and 1.61 µM
CC(C)CC(NC(=O)C(Cc1ccccc1)NC(=O)c1cnccn1)B(O)O (stereo not given) + CN1CCN(c2cc(C(=O)Nc3cc4cc(-c5cnn(C)c5)ccc4cn3)ccn2)CC1,IC50,[1],0.00441 µM
same,IC50,[2],0.00168 µM
same,IC50,[3],< 0.000949 µM
same,IC50,[4],< 0.000949 µM
same,IC50,[5],< 0.000949 µM
same,IC50,[6],< 0.000949 µM
same,"viability, T/C","second compound 0.0316 µM, first compound 0.000949 µM",83.3%
same,"viability, T/C","second compound 0.0316 µM, first compound 0.003 µM",70.2%
same,"viability, T/C","second compound 0.0316 µM, first compound 0.00949 µM",9.85%
same,"viability, T/C","second compound 0.0316 µM, first compound 0.03 µM",8.4%
same,"viability, T/C","second compound 0.0316 µM, first compound 0.0949 µM",6.4%
same,"viability, T/C","second compound 0.0316 µM, first compound 0.3 µM",4.25%
same,"viability, T/C","second compound 0.1 µM, first compound 0.000949 µM",62.6%
same,"viability, T/C","second compound 0.1 µM, first compound 0.003 µM",37.3%
same,"viability, T/C","second compound 0.1 µM, first compound 0.00949 µM",7.61%
same,"viability, T/C","second compound 0.1 µM, first compound 0.03 µM",6.34%
same,"viability, T/C","second compound 0.1 µM, first compound 0.0949 µM",6.04%
same,"viability, T/C","second compound 0.1 µM, first compound 0.3 µM",5.02%
same,"viability, T/C","second compound 0.316 µM, first compound 0.000949 µM",37.8%
same,"viability, T/C","second compound 0.316 µM, first compound 0.003 µM",4.9%
same,"viability, T/C","second compound 0.316 µM, first compound 0.00949 µM",10.6%
same,"viability, T/C","second compound 0.316 µM, first compound 0.03 µM",4.39%
same,"viability, T/C","second compound 0.316 µM, first compound 0.0949 µM",4.89%
same,"viability, T/C","second compound 0.316 µM, first compound 0.3 µM",2.72%
same,"viability, T/C","second compound 1 µM, first compound 0.000949 µM",9.15%
same,"viability, T/C","second compound 1 µM, first compound 0.003 µM",8.04%
same,"viability, T/C","second compound 1 µM, first compound 0.00949 µM",4.76%
same,"viability, T/C","second compound 1 µM, first compound 0.03 µM",6.26%
same,"viability, T/C","second compound 1 µM, first compound 0.0949 µM",7.32%
same,"viability, T/C","second compound 1 µM, first compound 0.3 µM",5.71%
same,"viability, T/C","second compound 3.16 µM, first compound 0.000949 µM",6.67%
same,"viability, T/C","second compound 3.16 µM, first compound 0.003 µM",6.69%
same,"viability, T/C","second compound 3.16 µM, first compound 0.00949 µM",5.84%
same,"viability, T/C","second compound 3.16 µM, first compound 0.03 µM",5.55%
same,"viability, T/C","second compound 3.16 µM, first compound 0.0949 µM",5.83%
same,"viability, T/C","second compound 3.16 µM, first compound 0.3 µM",4.09%
same,"viability, T/C","second compound 10 µM, first compound 0.000949 µM",8.8%
same,"viability, T/C","second compound 10 µM, first compound 0.003 µM",1.66%
same,"viability, T/C","second compound 10 µM, first compound 0.00949 µM",2.36%
same,"viability, T/C","second compound 10 µM, first compound 0.03 µM",1.91%
same,"viability, T/C","second compound 10 µM, first compound 0.0949 µM",4.23%
same,"viability, T/C","second compound 10 µM, first compound 0.3 µM",0.93%
CC(CO)NC(=O)c1cc(-c2ccc(Cl)cc2)nn(-c2cnn(C)c2)c1=O (stereo not given) + CN1CCN(c2cc(C(=O)Nc3cc4cc(-c5cnn(C)c5)ccc4cn3)ccn2)CC1,IC50,[1],> 10 µM
same,IC50,[2],> 10 µM
same,IC50,[3],> 10 µM
same,IC50,[4],< 0.0316 µM
same,IC50,[5],< 0.0316 µM
same,IC50,[6],< 0.0316 µM
same,"viability, T/C",[7],141%
same,"viability, T/C",[8],195%
same,"viability, T/C",[9],196%
same,"viability, T/C",[10],216%
same,"viability, T/C",[11],205%
same,"viability, T/C",[12],173%
same,"viability, T/C",[13],113%
same,"viability, T/C",[14],142%
same,"viability, T/C",[15],151%
same,"viability, T/C",[16],152%
same,"viability, T/C",[17],152%
same,"viability, T/C",[18],148%
same,"viability, T/C",[19],62.6%
same,"viability, T/C",[20],63.5%
same,"viability, T/C",[21],68.9%
same,"viability, T/C",[22],77.1%
same,"viability, T/C",[23],73%
same,"viability, T/C",[24],76.2%
same,"viability, T/C",[25],8.6%
same,"viability, T/C",[26],5.35%
same,"viability, T/C",[27],7.74%
same,"viability, T/C",[28],6.71%
same,"viability, T/C",[29],4.91%
same,"viability, T/C",[30],5.72%
same,"viability, T/C",[31],7.85%
same,"viability, T/C",[32],5.72%
same,"viability, T/C",[33],7.76%
same,"viability, T/C",[34],7.17%
same,"viability, T/C",[35],7.12%
same,"viability, T/C",[36],7.82%
same,"viability, T/C",[37],4.35%
same,"viability, T/C",[38],2.99%
same,"viability, T/C",[39],3.66%
same,"viability, T/C",[40],2.79%
same,"viability, T/C",[41],4.67%
same,"viability, T/C",[42],2.07%
CCN1CCN(Cc2ccc(Nc3ncc(F)c(-c4cc(F)c5nc(C)n(C(C)C)c5c4)n3)nc2)CC1 + CNC(=O)c1ccc(Nc2nc(OC3CCCC3)c3c(-c4ccc5nc(C)oc5c4)c[nH]c3n2)c(OC)c1,IC50,[1],> 1 µM
same,IC50,[2],> 1 µM
same,IC50,[3],> 1 µM
same,IC50,[4],< 0.00316 µM
same,IC50,[5],< 0.00316 µM
same,IC50,[6],< 0.00316 µM
same,"viability, T/C","second compound 0.0316 µM, first compound 0.00316 µM",81.5%
same,"viability, T/C","second compound 0.0316 µM, first compound 0.01 µM",94.4%
same,"viability, T/C",[7],76.3%
same,"viability, T/C",[8],67.7%
same,"viability, T/C",[9],98.7%
same,"viability, T/C",[10],155%
same,"viability, T/C","second compound 0.1 µM, first compound 0.00316 µM",58.5%
same,"viability, T/C","second compound 0.1 µM, first compound 0.01 µM",64%
same,"viability, T/C",[13],56.4%
same,"viability, T/C",[14],61.7%
same,"viability, T/C",[15],108%
same,"viability, T/C",[16],137%
same,"viability, T/C","second compound 0.316 µM, first compound 0.00316 µM",57.6%
same,"viability, T/C","second compound 0.316 µM, first compound 0.01 µM",55.6%
same,"viability, T/C",[19],51.7%
same,"viability, T/C",[20],61%
same,"viability, T/C",[21],95.3%
same,"viability, T/C",[22],135%
same,"viability, T/C","second compound 1 µM, first compound 0.00316 µM",45.5%
same,"viability, T/C","second compound 1 µM, first compound 0.01 µM",49.2%
same,"viability, T/C",[25],50.7%
same,"viability, T/C",[26],63%
same,"viability, T/C",[27],92.6%
same,"viability, T/C",[28],122%
same,"viability, T/C","second compound 3.16 µM, first compound 0.00316 µM",48.2%
same,"viability, T/C","second compound 3.16 µM, first compound 0.01 µM",55.7%
same,"viability, T/C",[31],57.1%
same,"viability, T/C",[32],49.6%
same,"viability, T/C",[33],82.9%
same,"viability, T/C",[34],97.9%
same,"viability, T/C","second compound 10 µM, first compound 0.00316 µM",46.1%
same,"viability, T/C","second compound 10 µM, first compound 0.01 µM",38.8%
same,"viability, T/C",[37],46.1%
same,"viability, T/C",[38],49.3%
same,"viability, T/C",[39],76.4%
same,"viability, T/C",[40],99.2%
